Source: paper PMC12498190, “A Photocaged N‐Phosphonopiperidinone as a Selective Photo‐Cleavable DPP8/9 Inhibitor” (Chembiochem, 2025)

Target: T1, PREP (Homo sapiens, UniProt P48147)
T1 construct: endogenous in cells; host or cells: HEK293 (Cytion, Germany, 300192)
T1 sequence (P48147 1-710): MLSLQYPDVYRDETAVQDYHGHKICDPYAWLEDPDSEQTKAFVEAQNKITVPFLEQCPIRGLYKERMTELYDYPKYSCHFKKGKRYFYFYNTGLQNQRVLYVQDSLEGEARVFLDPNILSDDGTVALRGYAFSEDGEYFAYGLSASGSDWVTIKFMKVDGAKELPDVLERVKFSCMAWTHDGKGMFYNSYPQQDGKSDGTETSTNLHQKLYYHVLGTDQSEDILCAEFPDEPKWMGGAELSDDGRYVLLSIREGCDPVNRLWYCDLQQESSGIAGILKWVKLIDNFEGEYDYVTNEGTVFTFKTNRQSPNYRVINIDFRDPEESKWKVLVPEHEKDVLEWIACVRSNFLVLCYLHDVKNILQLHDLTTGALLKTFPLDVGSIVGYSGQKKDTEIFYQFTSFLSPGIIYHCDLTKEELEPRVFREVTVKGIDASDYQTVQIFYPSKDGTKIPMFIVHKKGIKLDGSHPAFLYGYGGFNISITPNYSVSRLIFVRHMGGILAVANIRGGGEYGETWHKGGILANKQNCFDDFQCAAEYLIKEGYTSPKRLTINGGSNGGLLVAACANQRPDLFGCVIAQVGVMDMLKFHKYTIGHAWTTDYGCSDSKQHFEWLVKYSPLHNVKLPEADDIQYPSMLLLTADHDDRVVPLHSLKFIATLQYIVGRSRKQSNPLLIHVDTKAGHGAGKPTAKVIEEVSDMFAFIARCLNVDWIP
Assay: In situ competitive ABPP in HEK293 cell culture, 70 kDa band
Type: cell-based
Details: pre-incubation 1 h with 20 µM or 10 µM (method), 10 µM 2 for 1 h, light 5 min
Procedure: Figure 2 Competitive ABPP with photo‐cleavable inhibitor 5 in HEK293 cells. A) Schematic overview of a competitive ABPP experiment. A proteome is pre‐incubated with a competitor, followed by a labeling reaction with an activity‐based probe (ABP). In the case of a photocaged inhibitor, the active compound can be released via irradiation. Target proteins of the competitor cannot be bound by the ABP, resulting in an absence of the respective protein band in‐gel analysis. Created in BioRender. Najdzion, M. (2025) https://BioRender.com/84zn8cb B) Gel‐based competitive ABPP experiment in HEK293 cell lysates with the broadband serine hydrolase ABP ≡FP or the DPP8/9‐directed ABP 2 and the photocaged inhibitor 5, at the indicated concentrations, after or without prior irradiation with green light for 5 min. The corresponding pre‐incubation time for 5 was 30 min. C) Corresponding in situ competitive ABPP experiment in HEK293 cell culture, again with 10 µM 2 for 1 h. […] HEK293 cells were irradiated with a green LED lamp in the presence of 0.5% DMSO for 5 min (‘light’), and cell viability was measured after 24 h. […] For both compounds, cell viability was measured under ‘dark’ (not irradiated) and ‘light’ (irradiated for 5 min with a green LED lamp after the addition of the inhibitor) conditions. […]

CCCCCc1ccc(SCCP(=O)(OCC)N2CCC[C@H](NC(=O)OCC3=C4C(C)=CC(C)=[N+]4[B-](C)(C)n4c(C)cc(C)c43)C2=O)cc1 (stereo partly shown) [Compound 5]
Competition of PREP labeling in live cells (in words): partially competed
